Earlier results in patent publication US20170262578A1, “SYSTEM, METHOD AND SOFTWARE FOR ANALYSIS OF INTRACELLULAR SIGNALING PATHWAY ACTIVATION USING TRANSCRIPTOMIC DATA” (PATHWAY PHARMACEUTICALS LTD, priority 2015, published 2017).
Read-outs that look alike come from different tables or passages of the source.

How the values were obtained:
[1] = test system: Metastatic Renal Cell Cancer; details: for Serious adverse events: 108 from 359 Axitinib / 110 from 355 Sorafenib participants
[2] = test system: unresectable or metastatic renal cell carcinoma
[3] = test system: Locally Advanced and/or Metastatic Renal Cell Carcinoma; details: 68 from 186 Pazopanib / 73 from 177 Sunitinib participants
[4] = test system: Locally Advanced and/or Metastatic Renal Cell Carcinoma; details: 230 from 554 Pazopanib / 224 from 548 Sunitinib participants
[5] = test system: Locally Advanced and/or Metastatic Renal Cell Carcinoma; details: 76 from 290 participants
[6] = test system: Locally Recurrent or Metastatic Clear-Cell Renal Cell Carcinoma; details: 74 from 225 participants
[7] = test system: Metastatic Carcinoma of the Kidney Which Has Progressed on VEGF Receptor Tyrosine Kinase Inhibitor; details: with Best Supportive Care
[8] = test system: Metastatic or Unresectable Renal Cell Cancer (RCC)
[9] = test system: Unresectable and/or Metastatic Renal Cell Cancer
[10] = test system: Unresectable and/or Metastatic Renal Cell Carcinoma
Renal Cell Carcinoma [11] = test system: Renal Cell Carcinoma
[12] = test system: Unresectable and/or Metastatic Renal Cell Carcinoma; remark: listed apart in the source
[13] = test system: Metastatic Renal Cell Carcinoma (RCC)
[14] = test system: Cytokine-Refractory Metastatic Renal Cell Carcinoma; details: 46 from 106 participants
Renal Cell Carcinoma [15] = details: 28 from 51 participants
[16] = test system: Metastatic Renal Cell Cancer
[17] = test system: Advanced (First-Line) Renal Cell Cancer; details: 45 of 119 participants
[18] = test system: Cytokine-Refractory Metastatic Renal Cell Carcinoma
[19] = test system: Advanced Renal Cell Carcinoma; details: for Median overall response duration: 11 / 19 / 20 participants; for Median progression free survival / Median time to treatment failure: 207 / 209 / 210 participants; for Median overall survival: 207 Interferon-α / 209 Temsirolimus / 210 combination participants; for Clinical benefit (complete, partial response or stable disease) / Complete or partial response: from 207 / 209 / 210 participants
[20] = first intervention period, 5 / 8 participants
[21] = first intervention period, from 97 / 92 participants

CNC(=O)c1ccccc1Sc1ccc2c(/C=C/c3ccccn3)n[nH]c2c1 [Axitinib]
Serious adverse events [1]: 30.08%

CN1CC[C@H](c2c(O)cc(O)c3c(=O)cc(-c4ccccc4Cl)oc23)[C@H](O)C1 [Flavopiridol]
stable disease ([2]; 14 among 34 participants): 41% | CR+PR ([2]; 34 participants): 12% | Median overall survival ([2]; 34 participants): 9 months | probability of not failing treatment by 6 months ([2]; 34 participants): 21% | complete response ([2]; among 34 participants): 1 participants | partial response ([2]; among 34 participants): 3 participants | Toxicity of treatment ([2]; in vivo): moderate

Cc1ccc(Nc2nccc(N(C)c3ccc4c(C)n(C)nc4c3)n2)cc1S(N)(=O)=O [Pazopanib]
Serious adverse events [3]: 36.56% | Serious adverse events [4]: 41.52% | Serious adverse events [5]: 26.21% | Serious adverse events [6]: 32.89%

CO[C@H]1C[C@@H]2CC[C@@H](C)[C@@](O)(O2)C(=O)C(=O)N2CCCC[C@H]2C(=O)O[C@H]([C@H](C)C[C@@H]2CC[C@@H](OCCO)[C@H](OC)C2)CC(=O)[C@H](C)/C=C(\C)[C@@H](O)[C@@H](OC)C(=O)[C@H](C)C[C@H](C)/C=C/C=C/C=C/1C [RAD001, Everolimus]
Serious adverse events ([7]; 135 from 274 participants): 49.27% | Median overall survival ([7]; 277 participants): 13.57 months | Median progression free survival ([7]; 277 participants): 4.9 months | Complete or partial response ([7]; from 277 participants): 1.8%

CNC(=O)c1cc(Oc2ccc(NC(=O)Nc3ccc(Cl)c(C(F)(F)F)c3)c(F)c2)ccn1 [Regorafenib]
Median overall response duration ([8]; 19 participants): 428 days | Median duration of stable disease ([8]; 25 participants): 119 days | Serious adverse events ([8]; 30 from 49 participants): 61.22% | Median progression free survival ([8]; 49 participants): 335 days | partial response ([8]; among 48 participants): 39.6% | stable disease ([8]; among 48 participants): 41.7%

CNC(=O)c1cc(Oc2ccc(NC(=O)Nc3ccc(Cl)c(C(F)(F)F)c3)cc2)ccn1 [Sorafenib]
Serious adverse events ([9]; 154 from 451 participants): 34.15% | Median progression free survival ([9]; 384 participants): 167 days | Median overall survival ([9]; 451 participants): 542 days | partial response ([9]; from 335 participants): 2.1% | stable disease ([9]; from 335 participants): 77.9% | Median duration of response according to the Independent Radiological Review [10, 20]: 7.5 months | Median time to response according to the Independent Radiological Review [10, 20]: 1.8 months | Serious adverse events ([10]; first intervention period, 47 from 97 / 36 from 90 participants): 48.45% | partial response (Independent Central Review) [10, 21]: 5 participants | stable disease (Independent Central Review) [10, 21]: 72 participants | Median progression-free survival according to the Investigator Assessment ([10]; second intervention period): 4.5 months | Serious adverse events ([10]; second intervention period, 14 from 49 / 30 from 61 participants): 28.57% | stable disease (Investigator Assessment) ([10]; second intervention period, from 49 / 61 participants): 25 participants | Serious adverse events [1]: 30.99% | Median progression free survival ([1]; 361 Axitinib / 362 Sorafenib participants): 4.7 months | Serious adverse events (Renal Cell Carcinoma [11]; 34 of 95 participants): 35.79% | Median duration of overall response (Renal Cell Carcinoma [11]; 94 participants): 419 days | Median progression free survival (Renal Cell Carcinoma [11]; 94 participants): 386 days | Median time to response (Renal Cell Carcinoma [11]; 94 participants): 84 days | partial response (Renal Cell Carcinoma [11]; among 94 participants): 25 participants | stable disease (Renal Cell Carcinoma [11]; among 94 participants): 64 participants | Number of participants who died (Renal Cell Carcinoma [11]; from start of treatment of the first subject until 45 months later, from 94 participants): 43 participants | Median overall response duration ([12]; 5 participants): 7.4 months | Median time to objective response ([12]; 5 participants): 1.4 months | Serious adverse events ([12]; 12 from 39 participants): 30.77% | Median overall survival ([12]; 39 participants): 7.8 months | Median progression free survival ([12]; 39 participants): 5.5 months | Median time to progression ([12]; 39 participants): 5.5 months | partial response ([12]; from 39 participants): 5 participants | progressive disease ([12]; from 39 participants): 6 participants | stable disease ([12]; from 39 participants): 27 participants | Serious adverse events ([13]; 4 from 47 participants): 8.51% | Duration of overall response (tumor burden reduction) ([13]; 14 participants): 7.1 months | Median overall survival ([13]; 47 participants): 16 months | Median time to progression ([13]; 47 participants): 4.4 months | Reduction in tumor burden equal to or larger than 5% ([13]; at 8 weeks (2 cycles of treatment), % from 47 participants): 30%

CCN(CC)CCNC(=O)c1c(C)[nH]c(/C=C2\C(=O)Nc3ccc(F)cc32)c1C [Sunitinib]
Serious adverse events [3]: 41.24% | Serious adverse events [4]: 40.88% | Serious adverse events [14]: 43.40% | Serious adverse events (Renal Cell Carcinoma [15]): 54.90% | Serious adverse events ([16]; Sunitinib 37.5 mg group, 54 from 143 participants): 37.76% | Serious adverse events ([16]; Sunitinib 50 mg group, 50 from 146 participants): 34.25% | Serious adverse events [17]: 37.82% | Serious adverse events ([18]; AM dose group, out of 54 participants): 21 participants | Serious adverse events ([18]; PM dose group, from 53 participants): 20 participants

CO[C@H]1C[C@@H]2CC[C@@H](C)[C@@](O)(O2)C(=O)C(=O)N2CCCC[C@H]2C(=O)O[C@H]([C@H](C)C[C@@H]2CC[C@@H](OC(=O)C(C)(CO)CO)[C@H](OC)C2)CC(=O)[C@H](C)/C=C(\C)[C@@H](O)[C@@H](OC)C(=O)[C@H](C)C[C@H](C)/C=C/C=C/C=C/1C [Temsirolimus]
Median overall response duration [19]: 11.1 months | Serious adverse events ([19]; 99 from 200 / 82 from 208 / 122 from 208 participants): 39.42% | Median progression free survival [19]: 5.6 months | Median time to treatment failure [19]: 3.7 months | Median overall survival [19]: 10.9 months | Clinical benefit (complete, partial response or stable disease) [19]: 34% | Complete or partial response [19]: 9.1%

Interferon-α
Median overall response duration [19]: 7.4 months | Median progression free survival [19]: 3.2 months | Median time to treatment failure [19]: 1.9 months | Median overall survival [19]: 7.3 months | Clinical benefit (complete, partial response or stable disease) [19]: 16.4% | Complete or partial response [19]: 5.3% | Serious adverse events ([19]; in vivo): 49.5%
